16 molecules from PubChem BioAssay (NCI) can be followed below.

Structures are written as SMILES. Values joined by “and” are separate entries in the source; they are usually repeats but may differ in a detail not shown here. Equal entries are not always repeated.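 Test compounds were applied to cells in 96-well plates for 48 hours at 5 doses. Here, GI50 denotes the concentration required for 50% inhibition of growth. TGI is the concentration that stops growth completely.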

What all share (assay): NCI-60 cell line screen, 48 h
Assay [1] concerns A498 renal.
Assay [2] deals with A549 NSCLC.
Assay [3] deals with COLO 205 colon.
In assay [4] the test system is HOP-92 NSCLC.
The test system of assay [5] is HT29 colon.
Assay [6] deals with MDA-MB-435.
Assay [7] relates to NCI-H522 lung.
The subject of assay [8] is PC-3 prostate.
For assay [9], the system named is RPMI-8226 leukemia.
In assay [10] the test system is T-47D breast.

For `CC(C)C[C@H](NC(=O)[C@H](Cc1ccccc1)n1ccc(N2CCCCC2)cc1=O)B(O)O`, the GI50 in assay [1] was 0.127 µM; in assay [2], 2.39 µM; in assay [3], 0.853 µM; in assay [4], 1.34 µM; in assay [5], 0.449 µM; in assay [6], 0.177 µM. The GI50 in assay [7] is 0.305 µM; in [8] it was 4.19 µM; in assay [9], 0.321 µM; in assay [10], 0.781 µM. In addition, the TGI is 0.736 µM in assay [1]; > 100 µM in assay [2]; > 100 µM in assay [3]; 5.61 µM in [4]; > 100 µM in [5]; 0.371 µM in [6]. Also, the TGI in assay [7] was 2.25 µM; in assay [8] it was > 100 µM; in assay [9], > 100 µM; in assay [10], 6.09 µM.

In the case of `Cn1ccnc1C(=O)/C=C/c1ccc(CC(=O)Nc2ccc(Cl)cc2)cc1`, the GI50 is > 25 µM in assay [1]; 11.5 µM in assay [2]; 9.44 µM in assay [3]; > 25 µM in assay [4]; 0.889 µM in assay [5]; 9.16 µM in assay [6]. For the same molecule, the GI50 was 4.85 µM in assay [7], 1.37 µM in [8], 0.959 µM in assay [9] and 4.3 µM in assay [10]. Moreover, the TGI in assay [1], in assay [2], in [3], in assay [4], in [5] and in assay [6] was > 25 µM in each case. Also, the TGI in assay [7], in [8], in [9] and in [10] was > 25 µM throughout.

As to `CN1CCN(Cc2ccc(-c3cc4ncnc(Nc5ccc(OCc6cccc(F)c6)c(Cl)c5)c4s3)o2)CC1`, the GI50 is 3.5 µM in assay [1]; 3.2 µM in assay [2]; 4.8 µM in assay [3]; 2.76 µM in [4]; 1.38 µM in assay [5]; 4.68 µM in assay [6]. The GI50 in assay [7] was 4.75 µM; in [8], 4.13 µM; in assay [9], 3.91 µM; in assay [10], 4.12 µM. The TGI in [1] stood at 7.57 µM; in assay [2], 6.92 µM; in [3], 8.66 µM; in [4] it was 6.51 µM; in assay [5], 4.3 µM; in [6], 10.4 µM. Also, the TGI in assay [7] is 9.46 µM; in [8] it was 8.17 µM; in assay [9], 9.52 µM; in [10] it was 9.06 µM.

For the molecule `O=C1OC(c2ccco2)=N/C1=C\c1ccc(Cl)c(Cl)c1`, the TGI in assay [1], in [2], in assay [3], in assay [4], in assay [5] and in [6] was > 100 µM each time. The TGI in assay [7], in assay [8], in [9] and in assay [10] was > 100 µM throughout.

Regarding `Cc1ccc(C)c(NC(=O)C(=O)C(c2cnc3ccc([N+](=O)[O-])cc3n2)[N+](=O)[O-])c1` (stereo not drawn), the TGI in assay [1] is 69 µM; in assay [2] it was > 100 µM; in assay [3], > 100 µM; in assay [4], > 100 µM; in [5] it was > 100 µM; in assay [6], > 100 µM. Moreover, the TGI in assay [7] was > 100 µM; in assay [8], > 100 µM; in assay [9], 39.4 µM; in [10] it was > 100 µM.

In the case of `COc1ccc(CN2C(=O)/C(=C\c3cc(OC)c(OC)c(OC)c3)c3cc(OC)ccc32)cc1`, the GI50 in assay [1] was 1.5 µM; in assay [2] it was 2.74 µM; in assay [3] it was 2.59 µM; in [4] it was 1.21 µM; in assay [5], 2.19 µM; in assay [6], 2.88 µM. In addition, the GI50 in assay [7] was 1.32 µM; in [8] it was 3.35 µM; in assay [9], 1.89 µM; in assay [10], 2.34 µM. Further, the TGI worked out at 4.39 µM in [1]; 8.62 µM in assay [2]; 6.51 µM in assay [3]; 16.8 µM in [4]; 4.45 µM in assay [5]; 8.88 µM in [6]. Besides, the TGI in assay [7] amounted to 2.8 µM; in assay [8], 19.5 µM; in assay [9], 5.63 µM; in assay [10], 7.62 µM.

Turning to `COc1ccc(C(=O)/C=C/c2ccc(O)c(O)c2F)c(OC)c1`, the GI50 in assay [1] was 10.5 µM; in [2], 8.62 µM; in assay [3] it was 12.9 µM; in assay [4], 36 µM; in [5] it was 4.03 µM; in assay [6], 2.51 µM. For the same molecule, the GI50 in assay [7] was 0.481 µM; in assay [8], 6.18 µM; in assay [9], 0.923 µM; in [10], 3.21 µM. The TGI in assay [1] was 21.3 µM and 30.6 µM; in assay [2] it was 75 µM and > 100 µM; in assay [3], 22.1 µM and 27.2 µM; in assay [4], 75 µM and > 100 µM; in [5] it was 23.8 µM and 17.7 µM; in assay [6] it was 75 µM and 44.1 µM. Besides, the TGI in assay [7] is 5.56 µM and 3.18 µM; in [8], 17.7 µM and 24 µM; in [9] it was 31 µM and 8.25 µM; in [10] it was 75 µM and > 100 µM.

Take `CCC1=C(C)/C(=C/c2[nH]c(C)c(C(=O)CCCCC(=O)OC)c2C)N=C1c1ccc[nH]1`: the GI50 in assay [1] was 23.9 µM; in [2], 20.4 µM; in assay [3], 12.6 µM; in assay [4], 3.95 µM; in [5], 5.11 µM; in assay [6], 10.4 µM. Besides, the GI50 was 2.36 µM in assay [7], 4.4 µM in [8], 3.37 µM in assay [9] and 3.45 µM in assay [10]. The TGI in assay [1] is 59.5 µM; in assay [2] it was > 53.4 µM; in assay [3] it was > 100 µM; in assay [4], 15.4 µM; in assay [5] it was 38.4 µM; in assay [6], 46.1 µM. In addition, the TGI amounted to 6.37 µM in assay [7], 18 µM in assay [8], 13.9 µM in assay [9] and 13.8 µM in assay [10].

Turning to `CC(C)(C)[OH+][O-].[O-]c1ccc(Cl)cc1C=Nc1ccc(Cl)cc1[O-].[O]=[V]`, the GI50 was 27.7 µM in assay [1]; 17.1 µM in assay [2]; 19.3 µM in [3]; 28.7 µM in [4]; 21.9 µM in assay [5]; 14.6 µM in assay [6]. Also, the GI50 in assay [7] is 9.12 µM; in assay [8] it was 26.1 µM; in assay [9] it was 6.97 µM; in [10], 11.9 µM. Besides, the TGI in [1] was 64.2 µM; in [2], > 100 µM; in [3], 37.6 µM; in assay [4], > 100 µM; in assay [5], 67.3 µM; in assay [6] it was > 100 µM. Besides, the TGI was 25.1 µM in [7], > 100 µM in [8], > 100 µM in assay [9] and 98.7 µM in [10].

Take `O=C(/C=C/c1ccco1)c1ccc(Nc2nc(Nc3ccc(F)cc3)nc(Nc3ccc(Cl)cc3)n2)cc1`: the GI50 in [1] was 2.39 µM; in assay [2], 22.3 µM; in [3], 12.1 µM; in assay [4], 2.69 µM; in assay [5], 15.6 µM; in [6], 30.5 µM. For the same molecule, the GI50 in assay [7] was 31.1 µM; in assay [8] it was 1.54 µM; in assay [9], 2.75 µM; in [10] it was 20.3 µM. In addition, the TGI was > 65.1 µM in assay [1]; > 100 µM in [2]; > 100 µM in assay [3]; > 45.4 µM in assay [4]; > 89.7 µM in [5]; > 59.6 µM in assay [6]. Further, the TGI in assay [7] is > 100 µM; in assay [8], > 37.9 µM; in assay [9], > 82.4 µM; in assay [10] it was > 100 µM.

On to `Cc1[nH]c(=O)[nH]c(=O)c1N(CCF)CCCl`, for which the GI50 in assay [1] was 247 µM and 311 µM; in assay [2], 335 µM and 455 µM; in [3], 337 µM; in assay [4], 153 µM; in [9], 161 µM and 190 µM and 122 µM. The TGI in assay [1] is 507 µM and 466 µM and 967 µM; in [2], 990 µM and 1210 µM and 1850 µM; in assay [3], 930 µM and 805 µM; in assay [4], 329 µM and 466 µM and 363 µM; in [5] it was 1370 µM and 1230 µM; in assay [6], 876 µM. The TGI was 375 µM and 416 µM and 519 µM in [7]; 954 µM in assay [8]; 515 µM and 838 µM and 1270 µM in [9]; 1340 µM in [10].

As to `O=C1c2ccccc2-c2c1c1ccccc1c(=O)n2Cc1ccco1`, the TGI in assay [1], in assay [2], in assay [3], in assay [4], in assay [5] and in assay [6] was > 100 µM in each case. Moreover, the TGI in [7], in assay [8], in assay [9] and in [10] was > 100 µM in each case.

`O=[N+]([O-])c1cnc(Sc2ccncn2)c([N+](=O)[O-])c1`: the GI50 in [1] was 24.9 µM; in assay [2], 32.6 µM; in assay [3], 1.98 µM; in [4], 2.51 µM; in [5] it was 9.75 µM; in [6] it was 4.91 µM. The GI50 is 1.82 µM in assay [7], 15.1 µM in [8] and 1.78 µM in [10]. Also, the TGI in assay [1] was 65.3 µM; in [2] it was > 100 µM; in assay [3], 3.58 µM; in [4] it was 6.53 µM; in assay [5], 31.8 µM; in assay [6], 18.1 µM. For the same molecule, the TGI was 3.45 µM in [7], 29.2 µM in [8] and 3.8 µM in assay [10].

On to `Cn1c(C(N)=O)cc2c1-c1nc(Nc3ccccc3)ncc1CCC2`, for which the GI50 in assay [1] is 0.204 µM; in assay [2], 3.67 µM; in assay [3], 4.77 µM; in [4], 1.47 µM; in [5], 10.6 µM; in assay [6], 3.88 µM. For the same molecule, the GI50 is 4.13 µM in assay [7], 5.19 µM in assay [8] and 7.12 µM in assay [10]. The TGI is 0.955 µM in assay [1]; 22 µM in assay [2]; 17.7 µM in assay [3]; 8.32 µM in assay [4]; 34.7 µM in assay [5]; > 100 µM in assay [6]. Besides, the TGI in [7] amounted to 22.7 µM; in [8] it was 41.6 µM; in [10] it was 37.4 µM.

Consider `CCCCCCCCCCCCN1C(C)=CS/C1=C\C=C\c1scc(C)[n+]1CCCCCCCCCCCC`, for which the GI50 in [1] was 0.822 µM; in [3], 1.26 µM; in assay [4], 0.864 µM; in [6] it was 1.21 µM; in assay [7], 1.7 µM; in assay [8] it was 1.03 µM. Moreover, the GI50 in assay [10] was 0.817 µM. Further, the TGI in assay [1] was 4.09 µM; in assay [3] it was 4.13 µM; in [4] it was 3.77 µM; in assay [6], 3.68 µM; in [7] it was 5.11 µM; in assay [8], 3.46 µM. The molecule also returned a TGI in [10] of 6.77 µM.

In the case of `CS(=O)(=O)c1ccc(Oc2cc(F)cc(C#N)c2)c2c1[C@H](O)[C@H](F)[C@@H]2F`, the GI50 is 4.86 µM in [1]; > 100 µM in assay [2]; > 100 µM in assay [3]; > 100 µM in [5]; > 100 µM in assay [6]; > 100 µM in [7]. Also, the GI50 in [8], in assay [9] and in assay [10] was > 100 µM each time. Also, the TGI in [1], in assay [2], in assay [3], in assay [5], in assay [6] and in assay [7] was > 100 µM in each case. Further, the TGI in [8], in [9] and in [10] was > 100 µM each time.
